# Biological target: Beclin 1/Bcl-2 interaction (Homo sapiens (Human), UniProt P10415)
# Assay: Beclin 1/Bcl-2 AlphaLISA assay (dose-response)
# Type: binding
# Excerpt: We also developed a high-throughput Beclin 1/Bcl-2 AlphaLISA assay to directly measure the in vitro interaction between Beclin 1 and Bcl-2. AlphaLISA is a bead-based proximity assay that is capable of measuring protein-protein interaction in homogeneous solution.^41 Oxygen singlet molecules are generated by Alpha donor beads upon irradiation at 680 nm and travel to acceptor beads in proximity. […] Thus, a measurable Alpha luminescence signal requires chemical energy transfer between the donor and acceptor beads, and a pair of interacting molecules immobilized on the beads stabilizes bead association to produce measurable Alpha signals.
# We used purified recombinant Beclin 1 and Bcl-2 proteins for AlphaLISA, which were optimized for enhanced solubility and expression. Human Beclin 1 was expressed as a fusion protein with StrepII-SUMO at the N-terminus, and three residues on the aromatic finger of Beclin 1 were mutated (F359D/F360D/W361D) to improve solubility and protein stability.^42 These mutations are in the BARA domain, which is far from the BH3 motif recognized by Bcl-2. A recombinant Bcl-2-binding deficient mutant of Beclin 1 (StrepII-SUMO-Beclin 1^ΔBcl-2BD) was used as a negative control. […] For a normalization control, we included a parallel AlphaLISA assay with purified SUMO protein (with an N-terminal StrepII tag and a C-terminal 6xHis tag). The purpose of a normalization control is to eliminate inner filter (false-positive) hits that reduce luminescence signal by interfering with the AlphaLISA assay in ways that are unrelated to the Beclin 1/Bcl-2 interaction. With the normalization control, the interaction of Beclin 1 and Bcl-2 was measured as follows:
# All AlphaLISA assays were performed in triplicate in a 384-well format with BB buffer (phosphate-buffered saline supplemented with 0.5% BSA and 1 mM DTT). For the Beclin 1/Bcl-2 AlphaLISA, purified StrepII-SUMO-Beclin 1 was incubated with Bcl-2-6xHis proteins at 300 nM and 60 nM, respectively. For internal control AlphaLISA assays, StrepII-SUMO-6xHis protein (internal control) was used at 20 nM. […] Following the initial incubation, Strep-Tactin Alpha donor (AS106D) and anti-6xHis AlphaLISA acceptor beads (AL128M) were added to a final concentration of 40 μg/mL each and incubated at room temperature in the dark for an additional 1 h. All samples were evaluated in triplicate. Alpha signals were measured by an Envision plate reader (Perkin Elmer). Beclin 1/Bcl-2 Alpha signal was normalized with internal control Alpha signal. The normalized value represents the binding activity of Beclin 1 and Bcl-2. The percent activity of a compound was calculated as the following formula: […]
# Protein or peptide concentrations used in dose-response AlphaLISA experiments were as follows: Beclin1/Bcl-2—300 nM/60 nM; SUMO (internal control for Beclin 1/Bcl-2 AlphaLISA)—20 nM; Beclin 1 BH3/Bcl-2—1000 nM/60 nM; Bax BH3/Bcl-2—100 nM/20 nM; Biotin-6xHis (internal control for BH3/Bcl-2 AlphaLISA)—10
# Chain of Beclin 1/Bcl-2 interaction (P10415 1-218): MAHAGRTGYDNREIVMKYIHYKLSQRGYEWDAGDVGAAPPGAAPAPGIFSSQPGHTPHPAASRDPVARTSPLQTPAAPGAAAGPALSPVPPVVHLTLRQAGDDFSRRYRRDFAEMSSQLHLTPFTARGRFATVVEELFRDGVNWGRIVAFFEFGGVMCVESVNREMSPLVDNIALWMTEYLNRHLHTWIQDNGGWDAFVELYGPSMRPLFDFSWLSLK
row,IC50 [nM],Structure (SMILES)
1,> 10000,CC1=NN(C(=O)c2ccc(Br)cc2)C(c2ccccc2)C1 (centres unmarked) [Lqr-8-296]
2,6770,CC(C)(C)OC(=O)Nc1ccc(C2=NN(C(=O)c3ccc4c(c3)OCO4)C(c3ccccc3)C2)cc1 (centres unmarked) [Lqr-9-065]
3,2140,CS(=O)(=O)Nc1ccc(C2=NN(C(=O)c3ccc(I)cc3)C(c3ccco3)C2)cc1 (centres unmarked) [lqr-8-196]
4,29800,CCNc1ccc(C2=NN(C(=O)c3ccc(C)cc3)C(c3ccco3)C2)cc1 (centres unmarked) [lqr-8-219]
5,1240,CC(C)(C)OC(=O)Nc1ccc(C2=NN(C(=O)c3ccc([N+](=O)[O-])cc3)C(c3ccco3)C2)cc1 (centres unmarked) [lqr-8-233]
6,1800,COC(=O)Nc1ccc(C2=NN(C(=O)c3ccc(C)cc3)C(c3ccco3)C2)cc1 (centres unmarked) [lqr-8-235]
7,905,Cc1ccc(C(=O)N2N=C(c3ccc(NS(C)(=O)=O)cc3)CC2c2ccccc2)cc1 (centres unmarked) [lqr-8-238]
8,13900,Cc1ccc(C(=O)N2N=C(c3ccc(NS(C)(=O)=O)cc3)CC2c2ccc(Br)cc2)cc1 (centres unmarked) [lqr-8-267]
9,9830,Cc1ccc(C(=O)N2N=C(c3ccc(NS(C)(=O)=O)cc3)CC2c2ccccc2Br)cc1 (centres unmarked) [lqr-8-269]
10,14200,Cc1ccc(C(=O)N2N=C(c3ccc(NS(C)(=O)=O)cc3)CC2c2ccc(C)cc2)cc1 (centres unmarked) [lqr-8-275]
11,2680,CC(C)(C)OC(=O)Nc1ccc(C2=NN(C(=O)c3ccc(Br)cc3)C(c3ccc(Br)o3)C2)cc1 (centres unmarked) [lqr-8-302]
12,> 10000,O=C(c1ccc(Br)cc1)N1N=C(c2ccco2)CC1c1ccccc1 (centres unmarked) [lqr-8-309]
13,> 10000,O=C(c1ccc(Br)cc1)N1N=C(c2ccc[nH]2)CC1c1ccccc1 (centres unmarked) [lqr-8-310]
14,> 10000,CC(C)(C)OC(=O)Nc1ccc(-c2cc(-c3ccccc3)[nH]n2)cc1 [lqr-9-012]
15,> 10000,CC(C)(C)OC(=O)Nc1ccc(-c2cc(-c3ccccc3)n(C(=O)c3ccc(Br)cc3)n2)cc1 [lqr-9-013]
16,> 10000,CC(C)(C)OC(=O)n1cccc1C1=NN(C(=O)c2ccc(Br)cc2)C(c2ccccc2)C1 (centres unmarked) [lqr-9-018]
17,13000,CCC1CC(c2ccc(NC(=O)OC(C)(C)C)cc2)=NN1C(=O)c1ccc(Br)cc1 (centres unmarked) [lqr-9-026]

row,Structure (SMILES),IC50 [nM]
1,Cc1ccc(C(=O)N2N=C(c3ccc(NS(C)(=O)=O)cc3)CC2c2ccco2)cc1 (centres unmarked) [lqr-8-177],16200
2,CS(=O)(=O)Nc1ccc(C2=NN(C(=O)c3ccc(Cl)cc3)C(c3ccco3)C2)cc1 (centres unmarked) [lqr-8-180],2760
3,CS(=O)(=O)Nc1ccc(C2=NN(C(=O)c3ccc(F)cc3)C(c3ccco3)C2)cc1 (centres unmarked) [lqr-8-183],12800
4,COc1ccc(C(=O)N2N=C(c3ccc(NS(C)(=O)=O)cc3)CC2c2ccco2)cc1 (centres unmarked) [lqr-8-185],9900
5,CS(=O)(=O)Nc1ccc(C2=NN(C(=O)c3ccc(Br)cc3)C(c3ccco3)C2)cc1 (centres unmarked) [lqr-8-186],2420
6,CS(=O)(=O)Nc1ccc(C2=NN(C(=O)c3ccc([N+](=O)[O-])cc3)C(c3ccco3)C2)cc1 (centres unmarked) [lqr-8-188],1680
7,CS(=O)(=O)Nc1ccc(C2=NN(C(=O)c3ccc(C(F)(F)F)cc3)C(c3ccco3)C2)cc1 (centres unmarked) [lqr-8-189],2790
8,CS(=O)(=O)Nc1ccc(C2=NN(C(=O)c3ccc(C#N)cc3)C(c3ccco3)C2)cc1 (centres unmarked) [lqr-8-190],7230
9,Cc1ccc(C(=O)N2N=C(c3ccc(NC(=O)OC(C)(C)C)cc3)CC2c2ccco2)cc1 (centres unmarked) [lqr-8-203],2880
10,CC(C)(C)OC(=O)Nc1ccc(C2=NN(C(=O)c3ccc(Br)cc3)C(c3ccco3)C2)cc1 (centres unmarked) [lqr-8-231],982
11,CC(C)(C)OC(=O)Nc1ccc(C2=NN(C(=O)c3ccc(Br)cc3)C(c3ccccc3)C2)cc1 (centres unmarked) [lqr-8-278],274
12,CC(C)(C)OC(=O)Nc1ccc(C2=NN(C(=O)c3ccc([N+](=O)[O-])cc3)C(c3ccccc3)C2)cc1 (centres unmarked) [lqr-8-279],349
13,COC(=O)Nc1ccc(C2=NN(C(=O)c3ccc(Br)cc3)C(c3ccccc3)C2)cc1 (centres unmarked) [lqr-9-008],10000
14,CC(C)(C)OC(=O)Nc1ccc(C2=NN(C(=O)c3ccc(Br)cc3)C(c3ccccn3)C2)cc1 (centres unmarked) [lqr-9-033],455
15,CC(C)(C)OC(=O)Nc1ccc(C2=NN(C(=O)c3ccc(Br)cc3)C(c3cccnc3)C2)cc1 (centres unmarked) [lqr-9-044],1800
